Data reported in US20240299385A1 (ReWind Therapeutics NV, priority 2021, published 2024).

Target: T1, human GPR17 receptor (Homo sapiens, UniProt Q13304)
T1 construct: host or cells: HEK-293
Experiment: Calcium mobilization functional assay (Fluo-8, FLIPR TETRA) in HEK-293 hGPR17 (Gα-q assay)
Format: cell-based
Settings: antagonism of MDL29,951 (~EC80) induced Ca2+ signal; cell line (HEK-293 hGPR17 or HEK-293 Suchi5 hGPR17) not given
Outline: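 Fluo-8-loaded HEK-293 hGPR17 cells (60 min dye loading, room temperature) were preincubated with compound for twenty minutes, then challenged with agonist MDL29,951 at ~EC80, 500 nM. Intracellular calcium release via Gα-q was recorded as FLIPR fluorescence for a further 2 minutes; compounds tested in duplicate.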

T1 sequence (Q13304 whole entry): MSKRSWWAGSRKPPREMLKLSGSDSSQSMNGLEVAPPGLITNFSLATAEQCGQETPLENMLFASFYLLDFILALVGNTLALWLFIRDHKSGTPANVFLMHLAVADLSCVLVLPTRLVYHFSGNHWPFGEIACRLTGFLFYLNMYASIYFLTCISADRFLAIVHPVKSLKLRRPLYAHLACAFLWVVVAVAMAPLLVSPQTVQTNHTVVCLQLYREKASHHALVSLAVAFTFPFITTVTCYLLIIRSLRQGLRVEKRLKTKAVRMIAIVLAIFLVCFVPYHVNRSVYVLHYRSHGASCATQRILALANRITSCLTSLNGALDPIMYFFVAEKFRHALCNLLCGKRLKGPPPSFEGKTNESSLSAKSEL

## COc1ccccc1-c1cc(S(=O)(=O)Nc2cc(F)c(OC(F)F)cc2F)c[nH]1 [Cpd 530, N-[4-(difluoromethoxy)-2,5-difluorophenyl]-5-(2-methoxyphenyl)-1H-pyrrole-3-sulfonamide]
  IC50: < 500 nM

## COc1c(F)cccc1-c1cc(S(=O)(=O)Nc2cc(F)c(OC(F)F)cc2F)c[nH]1 [Cpd 531, N-[4-(difluoromethoxy)-2,5-difluorophenyl]-5-(3-fluoro-2-methoxyphenyl)-1H-pyrrole-3-sulfonamide]
  IC50: < 500 nM

## COc1ccccc1-c1cc(S(=O)(=O)Nc2cc(F)c(Br)cc2F)c[nH]1 [Cpd 532, N-(4-bromo-2,5-difluorophenyl)-5-(2-methoxyphenyl)-1H-pyrrole-3-sulfonamide]
  IC50: 500 to 5000 nM

## O=S(=O)(Nc1cc(F)c(Br)cc1F)c1c[nH]c(-c2ccccc2Cl)c1 [Cpd 533, N-(4-bromo-2,5-difluorophenyl)-5-(2-chlorophenyl)-1H-pyrrole-3-sulfonamide]
  IC50: 500 to 5000 nM

## O=S(=O)(Nc1cc(F)c(Br)cc1F)c1c[nH]c(-c2cccc3cccnc23)c1 [Cpd 534, N-(4-bromo-2,5-difluorophenyl)-5-quinolin-8-yl-1H-pyrrole-3-sulfonamide]
  IC50: 500 to 5000 nM

## N#Cc1ccc(NS(=O)(=O)c2c[nH]cc2Cc2ccc(F)c(F)c2)c(F)c1 [Cpd 535, N-(4-cyano-2-fluorophenyl)-4-[(3,4-difluorophenyl)methyl]-1H-pyrrole-3-sulfonamide]
  IC50: < 500 nM

## COc1cc(Cc2c[nH]cc2S(=O)(=O)Nc2ccc(C#N)cc2F)ccc1F [Cpd 536, N-(4-cyano-2-fluorophenyl)-4-[(4-fluoro-3-methoxyphenyl)methyl]-1H-pyrrole-3-sulfonamide]
  IC50: < 500 nM

## O=S(=O)(Nc1cc(F)c(CO)cc1F)c1c[nH]c(-c2ccccc2)c1 [Cpd 537, N-[2,5-difluoro-4-(hydroxymethyl)phenyl]-5-phenyl-1H-pyrrole-3-sulfonamide]
  IC50: 500 to 5000 nM

## Cc1ncc(-c2cc(S(=O)(=O)Nc3cc(F)c(C(F)(F)F)cc3F)c[nH]2)s1 [Cpd 538, N-[2,5-difluoro-4-(trifluoromethyl)phenyl]-5-(2-methyl-1,3-thiazol-5-yl)-1H-pyrrole-3-sulfonamide]
  IC50: 500 to 5000 nM

## COc1sccc1-c1cc(S(=O)(=O)Nc2cc(F)c(C(F)(F)F)cc2F)c[nH]1 [Cpd 539, N-[2,5-difluoro-4-(trifluoromethyl)phenyl]-5-(2-methoxythiophen-3-yl)-1H-pyrrole-3-sulfonamide]
  IC50: < 500 nM

## Cn1cc2cccc(-c3cc(S(=O)(=O)Nc4cc(F)c(C(F)(F)F)cc4F)c[nH]3)c2n1 [Cpd 540, N-[2,5-difluoro-4-(trifluoromethyl)phenyl]-5-(2-methylindazol-7-yl)-1H-pyrrole-3-sulfonamide]
  IC50: 500 to 5000 nM

## N#Cc1cccc(-c2cc(S(=O)(=O)Nc3cc(F)c(Br)cc3F)c[nH]2)c1 [Cpd 541, N-(4-bromo-2,5-difluorophenyl)-5-(3-cyanophenyl)-1H-pyrrole-3-sulfonamide]
  IC50: < 500 nM

## N#Cc1ccc(NS(=O)(=O)c2c[nH]c(-c3cccc(F)c3OC3CC3)c2)c(F)c1 [Cpd 542, N-(4-cyano-2-fluorophenyl)-5-(2-cyclopropyloxy-3-fluorophenyl)-1H-pyrrole-3-sulfonamide]
  IC50: < 500 nM

## N#Cc1ccc(NS(=O)(=O)c2c[nH]c(-c3ncc(F)cc3F)c2)c(F)c1 [Cpd 543, N-(4-cyano-2-fluorophenyl)-5-(3,5-difluoropyridin-2-yl)-1H-pyrrole-3-sulfonamide]
  IC50: < 500 nM

## COc1c(F)cccc1-c1cc(S(=O)(=O)Nc2cc(F)c(Br)cc2F)c[nH]1 [Cpd 544, N-(4-bromo-2,5-difluorophenyl)-5-(3-fluoro-2-methoxyphenyl)-1H-pyrrole-3-sulfonamide]
  IC50: < 500 nM

## N#Cc1ccc(NS(=O)(=O)c2c[nH]cc2Cc2ccc(F)c(Cl)c2)c(F)c1 [Cpd 545, 4-[(3-chloro-4-fluorophenyl)methyl]-N-(4-cyano-2-fluorophenyl)-1H-pyrrole-3-sulfonamide]
  IC50: < 500 nM

## N#Cc1ccc(NS(=O)(=O)c2c[nH]cc2Cc2cc(F)cc(F)c2)c(F)c1 [Cpd 546, N-(4-cyano-2-fluorophenyl)-4-[(3,5-difluorophenyl)methyl]-1H-pyrrole-3-sulfonamide]
  IC50: < 500 nM

## COc1cc(F)cc(Cc2c[nH]cc2S(=O)(=O)Nc2ccc(C#N)cc2F)c1 [Cpd 547, N-(4-cyano-2-fluorophenyl)-4-[(3-fluoro-5-methoxyphenyl)methyl]-1H-pyrrole-3-sulfonamide]
  IC50: 500 to 5000 nM

## N#Cc1cc(F)c(NS(=O)(=O)c2c[nH]cc2Cc2cccc(OC(F)F)c2)cc1F [Cpd 548, N-(4-cyano-2,5-difluorophenyl)-4-[[3-(difluoromethoxy)phenyl]methyl]-1H-pyrrole-3-sulfonamide]
  IC50: < 500 nM

## N#Cc1cc(F)c(NS(=O)(=O)c2c[nH]c(C3CCC3)c2)cc1F [Cpd 549, N-(4-cyano-2,5-difluorophenyl)-5-cyclobutyl-1H-pyrrole-3-sulfonamide]
  IC50: < 500 nM

## O=S(=O)(Nc1cc(F)c(OC(F)F)cc1F)c1c[nH]c(C2CCC2)c1 [Cpd 550, 5-cyclobutyl-N-[4-(difluoromethoxy)-2,5-difluorophenyl]-1H-pyrrole-3-sulfonamide]
  IC50: < 500 nM

## O=S(=O)(Nc1cc(F)c(Br)cc1F)c1c[nH]c(C2CCC2)c1 [Cpd 551, N-(4-bromo-2,5-difluorophenyl)-5-cyclobutyl-1H-pyrrole-3-sulfonamide]
  IC50: < 500 nM

## O=S(=O)(Nc1cc(F)c(OC(F)F)cc1F)c1c[nH]c(-c2cccc3cccnc23)c1 [Cpd 552, N-[4-(difluoromethoxy)-2,5-difluorophenyl]-5-quinolin-8-yl-1H-pyrrole-3-sulfonamide]
  IC50: 500 to 5000 nM

## O=S(=O)(Nc1cc(F)c(OC(F)F)cc1F)c1c[nH]c(-c2cccc3ccoc23)c1 [Cpd 553, 5-(1-benzofuran-7-yl)-N-[4-(difluoromethoxy)-2,5-difluorophenyl]-1H-pyrrole-3-sulfonamide]
  IC50: 500 to 5000 nM

## N#Cc1ccc(F)c(-c2cc(S(=O)(=O)Nc3cc(F)c(C(F)(F)F)cc3F)c[nH]2)c1 [Cpd 554, 5-(5-cyano-2-fluorophenyl)-N-[2,5-difluoro-4-(trifluoromethyl)phenyl]-1H-pyrrole-3-sulfonamide]
  IC50: < 500 nM

## Cn1cccc(-c2cc(S(=O)(=O)Nc3cc(F)c(C(F)(F)F)cc3F)c[nH]2)c1=O [Cpd 555, N-[2,5-difluoro-4-(trifluoromethyl)phenyl]-5-(1-methyl-2-oxopyridin-3-yl)-1H-pyrrole-3-sulfonamide]
  IC50: < 500 nM

## O=S(=O)(Nc1cc(F)c(C(F)(F)F)cc1F)c1c[nH]c(-c2cnccc2Cl)c1 [Cpd 556, 5-(4-chloropyridin-3-yl)-N-[2,5-difluoro-4-(trifluoromethyl)phenyl]-1H-pyrrole-3-sulfonamide]
  IC50: < 500 nM

## O=S(=O)(Nc1cc(F)c(C(F)(F)F)cc1F)c1c[nH]c(-c2c(F)ccnc2F)c1 [Cpd 557, 5-(2,4-difluoropyridin-3-yl)-N-[2,5-difluoro-4-(trifluoromethyl)phenyl]-1H-pyrrole-3-sulfonamide]
  IC50: < 500 nM

## O=S(=O)(Nc1cc(F)c(C(F)(F)F)cc1F)c1c[nH]cc1Cc1cccc(OC(F)F)c1 [Cpd 558, 4-[[3-(difluoromethoxy)phenyl]methyl]-N-[2,5-difluoro-4-(trifluoromethyl)phenyl]-1H-pyrrole-3-sulfonamide]
  IC50: 500 to 5000 nM

## O=S(=O)(Nc1cc(F)c(C(F)(F)F)cc1F)c1c[nH]c(-c2cnsc2)c1 [Cpd 559, N-[2,5-difluoro-4-(trifluoromethyl)phenyl]-5-(1,2-thiazol-4-yl)-1H-pyrrole-3-sulfonamide]
  IC50: < 500 nM

## COCc1cccnc1-c1cc(S(=O)(=O)Nc2cc(F)c(C(F)(F)F)cc2F)c[nH]1 [Cpd 560, N-[2,5-difluoro-4-(trifluoromethyl)phenyl]-5-[3-(methoxymethyl)pyridin-2-yl]-1H-pyrrole-3-sulfonamide]
  IC50: 5000 to 50000 nM

## O=S(=O)(Nc1cc(F)c(Br)cc1F)c1c[nH]c(-c2cccc3ccoc23)c1 [Cpd 561, 5-(1-benzofuran-7-yl)-N-(4-bromo-2,5-difluorophenyl)-1H-pyrrole-3-sulfonamide]
  IC50: 500 to 5000 nM

## N#Cc1ccc(NS(=O)(=O)c2c[nH]c(-c3csc(Cl)c3)c2)c(F)c1 [Cpd 562, 5-(5-chlorothiophen-3-yl)-N-(4-cyano-2-fluorophenyl)-1H-pyrrole-3-sulfonamide]
  IC50: < 500 nM

## N#Cc1ccc(NS(=O)(=O)c2c[nH]c(-c3cc(Cl)cs3)c2)c(F)c1 [Cpd 563, 5-(4-chlorothiophen-2-yl)-N-(4-cyano-2-fluorophenyl)-1H-pyrrole-3-sulfonamide]
  IC50: < 500 nM

## N#Cc1cccc(-c2cc(S(=O)(=O)Nc3cc(F)c(C(F)(F)F)cc3F)c[nH]2)c1F [Cpd 564, 5-(3-cyano-2-fluorophenyl)-N-[2,5-difluoro-4-(trifluoromethyl)phenyl]-1H-pyrrole-3-sulfonamide]
  IC50: 500 to 5000 nM

## O=S(=O)(Nc1cc(F)c(C(F)(F)F)cc1F)c1c[nH]c(-c2cccn3ccnc23)c1 [Cpd 565, N-[2,5-difluoro-4-(trifluoromethyl)phenyl]-5-imidazo[1,2-a]pyridin-8-yl-1H-pyrrole-3-sulfonamide]
  IC50: 500 to 5000 nM

## O=S(=O)(Nc1cc(F)c(C(F)(F)F)cc1F)c1c[nH]c(-c2cccc3ccnn23)c1 [Cpd 566, N-[2,5-difluoro-4-(trifluoromethyl)phenyl]-5-pyrazolo[1,5-a]pyridin-7-yl-1H-pyrrole-3-sulfonamide]
  IC50: 500 to 5000 nM

## O=S(=O)(Nc1cc(F)c(C(F)(F)F)cc1F)c1c[nH]c(-c2ccc3cccnn23)c1 [Cpd 567, N-[2,5-difluoro-4-(trifluoromethyl)phenyl]-5-pyrrolo[1,2-b]pyridazin-7-yl-1H-pyrrole-3-sulfonamide]
  IC50: < 500 nM

## O=S(=O)(Nc1cc(F)c(C(F)(F)F)cc1F)c1c[nH]cc1Cc1cccc(Cl)c1 [Cpd 568, 4-[(3-chlorophenyl)methyl]-N-[2,5-difluoro-4-(trifluoromethyl)phenyl]-1H-pyrrole-3-sulfonamide]
  IC50: 500 to 5000 nM
